Patent EP4389132A1 (priority 2021, dated 2023)

What was measured:
[1] = test system: influenza A/Kitakyushu/159/93 (H3N2); experiment: Antiviral properties of treated natural rubber glove film, plaque method on MDCK cells; type: cell-based, influenza virus; conditions: glove immersed in 1% (V/V) aqueous solution for 10 minutes, dried; virus contact 1 hour at room temperature; control 6.78
[2] = target: T1, binding of SARS-CoV-2 to ACE2 (UniProt P0DTC2+Q9BYF1); experiment: COVID-19 Spike-ACE2 Binding Assay Kit (RayBiotech): ACE2 protein binding to S-protein adsorption plate, absorbance at 450 nm; design: species or system human
T1 construct: purchased RayBiotech Life, Inc

coronavirus (SARS-CoV-2) = experiment: Antiviral test of processed non-woven fabric according to ISO 18184, plaque method; type: cell-based; conditions: polyethylene terephthalate non-woven fabric immersed in 2% (V/V) aqueous solution, pickup rate 200%, dried at 110°C; control 6.63

O[C@H]1[C@H](O)[C@@H](O)[C@H](O)[C@@H](O)[C@H]1O [Myo-inositol, myo-inositol]
Viral infectivity titer [1]: 4.1 PFU/0.1 mL, Log10
Virus binding rate ([2]; Concentration 2 % (V/V), relative binding rate, control = 1.00): 1.00
binding inhibitory effect on the binding of SARS-CoV-2 to ACE2 (in words) ([2]; summary of Table 1): no binding inhibitory effect was observed
Viral infectivity titer (coronavirus (SARS-CoV-2)): 2.7 PFU/0.1 mL, Log10
